Test systems include NCI-H226; CCRF-CEM; U-251; DMS-114; DLD-1; M14; LOX IMVI; TK-10; KM-20L2; HCC 2998; SK-MEL-2; M19-MEL; PC-3; 786-0; Hs-578T; DU-145; NCI/ADR-RES; MCF7; MDA-MB-231; HOP-18.
What all share (experiment): NCI-60 cell line screen, 48 h

Each structure is given as a SMILES string.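 Protocol summary: plate cells (96-well), add compound at 5 concentrations, incubate 48 h, interpolate endpoints linearly. GI50 = concentration required for 50% inhibition of growth.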 Activity calls are given as the source filed them. Rule as the data show it: active = GI50 up to about 1.1 µM and inactive = higher.

Regarding `Cc1ccc([N+](=O)[O-])cc1NC(=O)C(=O)C(C(=O)c1ccccc1F)C1OC(=O)c2ccccc21` (configuration not stated), the GI50 is 16 µM (inactive) in the experiment with NCI-H226; 26.8 µM (inactive) in the experiment on CCRF-CEM; 18.1 µM (inactive) with U-251; 16.5 µM (inactive) in the experiment with DMS-114; 41.5 µM (inactive) with DLD-1; 66.8 µM (inactive) in the experiment with M14. Moreover, the GI50 is 27.5 µM (inactive) with LOX IMVI; > 100 µM (inactive) in the experiment on TK-10; 34.6 µM (inactive) in the experiment with KM-20L2; 29.7 µM (inactive) with HCC 2998; 25.9 µM (inactive) with SK-MEL-2; 33.4 µM (inactive) in the experiment with M19-MEL.
For `N#CC1(C#N)C2C=CC(C3CCC=C32)C1(C#N)C#N` (configuration not stated), the GI50 was > 10 µM (inactive) in the experiment on NCI-H226; 1.91 µM (inactive) in the experiment on CCRF-CEM; > 10 µM (inactive) in the experiment on U-251; > 10 µM (inactive) with PC-3; > 5.66 µM (inactive) with 786-0; 5.79 µM (inactive) with M14. In addition, the GI50 in the experiment on Hs-578T is > 10 µM (inactive); in the experiment with DU-145, > 10 µM (inactive); in the experiment with NCI/ADR-RES, > 10 µM (inactive); with LOX IMVI, > 10 µM (inactive); with TK-10, > 5.7 µM (inactive); in the experiment with MCF7 it was > 8.2 µM (inactive). Besides, the GI50 in the experiment with MDA-MB-231, in the experiment with HCC 2998 and with SK-MEL-2 was > 10 µM (inactive) in each case.
For the compound `COc1ccc(C2COc3cc(O)c(O)cc3C2)cc1` (configuration not stated), the GI50 in the experiment on NCI-H226 is 39.6 µM (inactive); with CCRF-CEM it was 2.86 µM (inactive); in the experiment on U-251, 13.7 µM (inactive); in the experiment on DLD-1 it was 9.93 µM (inactive); with NCI/ADR-RES it was 11 µM (inactive); in the experiment on LOX IMVI it was 32.3 µM (inactive). Besides, the GI50 in the experiment on HOP-18 was 29.9 µM (inactive); in the experiment on MCF7, 37.2 µM (inactive); in the experiment with KM-20L2 it was 76.2 µM (inactive); in the experiment on HCC 2998, 21.4 µM (inactive); in the experiment on SK-MEL-2 it was 54.6 µM (inactive); in the experiment with M19-MEL, 15.1 µM (inactive).
As to `CCOc1cc(/C=N\O)cc(/C=N/O)c1O`, the GI50 was 37.9 µM (inactive) with NCI-H226; 35.3 µM (inactive) in the experiment on CCRF-CEM; 25.6 µM (inactive) in the experiment with U-251; 28.2 µM (inactive) in the experiment with PC-3; 49.4 µM (inactive) in the experiment on 786-0; 44 µM (inactive) in the experiment with M14. Also, the GI50 is 31.3 µM (inactive) in the experiment with Hs-578T; 68.5 µM (inactive) with DU-145; 41.7 µM (inactive) in the experiment with NCI/ADR-RES; 22.2 µM (inactive) with LOX IMVI; > 100 µM (inactive) in the experiment on TK-10; 9.68 µM (inactive) in the experiment with MCF7. Also, the GI50 in the experiment on MDA-MB-231 is 69.8 µM (inactive); in the experiment with HCC 2998, 56.5 µM (inactive); in the experiment on SK-MEL-2 it was 18.1 µM (inactive).
For the compound `CC1(C)COC2C(N(Cc3ccccc3)Cc3ccccc3)C(=O)N21` (configuration not stated), the GI50 with NCI-H226 was 47.2 µM (inactive); in the experiment with CCRF-CEM, 32.7 µM (inactive); with U-251, 26.3 µM (inactive); in the experiment on 786-0 it was 31 µM (inactive); in the experiment with DLD-1 it was 50 µM (inactive); with M14, 23.1 µM (inactive). In addition, the GI50 was 46.6 µM (inactive) in the experiment with LOX IMVI; 50 µM (inactive) in the experiment with HOP-18; 37.2 µM (inactive) in the experiment with TK-10; 37.1 µM (inactive) with KM-20L2; 41.7 µM (inactive) in the experiment with HCC 2998; 73.8 µM (inactive) with M19-MEL.
`Cc1cc(N(CCC#N)S(=O)(=O)c2ccccc2)ccc1/C=N\c1cccc(C(=O)O)c1`: the GI50 is > 100 µM (inactive) in the experiment with NCI-H226; > 100 µM (inactive) in the experiment on CCRF-CEM; > 100 µM (inactive) in the experiment with U-251; 61 µM (inactive) with DMS-114; > 100 µM (inactive) in the experiment on M14; > 100 µM (inactive) in the experiment on HOP-18. The GI50 in the experiment with TK-10, in the experiment on KM-20L2, in the experiment with HCC 2998, in the experiment on SK-MEL-2 and in the experiment with M19-MEL was > 100 µM (inactive) throughout.
As for `O=c1c2c3c(sc2nc(CN2CCNCC2)n1-c1ccccc1)CCCC3`, the GI50 in the experiment on NCI-H226, in the experiment on CCRF-CEM, in the experiment on U-251, in the experiment on PC-3, with 786-0 and in the experiment with M14 was > 100 µM (inactive) throughout. The GI50 in the experiment on Hs-578T, with DU-145, in the experiment on NCI/ADR-RES, with LOX IMVI, with TK-10 and with MCF7 was > 100 µM (inactive) each time. For the same compound, the GI50 with MDA-MB-231, in the experiment with HCC 2998 and in the experiment on SK-MEL-2 was > 100 µM (inactive) each time.
With `CCCCc1c2c(nc3c1CCc1cc4cc5c(nc4nc1-3)-c1nc3c(c(CCCC)c1CC5)CCC/C3=C\c1ccccc1)/C(=C/c1ccccc1)CCC2`, the GI50 in the experiment with NCI-H226, in the experiment with CCRF-CEM, in the experiment with U-251, in the experiment with 786-0, in the experiment on DMS-114 and in the experiment on DLD-1 was > 100 µM (inactive) each time. Besides, the GI50 in the experiment with M14, with LOX IMVI, with TK-10, with KM-20L2 and in the experiment on HCC 2998 was > 100 µM (inactive) each time.
As for `N#CC1(CCCI)CCCC1`, the GI50 in the experiment with CCRF-CEM was 11.5 µM (inactive); in the experiment with U-251, 13.4 µM (inactive); in the experiment with DMS-114, 3.72 µM (inactive); in the experiment on DLD-1, 19.1 µM (inactive); with M14, 5.83 µM (inactive); in the experiment with LOX IMVI, 3.76 µM (inactive). Further, the GI50 in the experiment with HOP-18 is 13.5 µM (inactive); in the experiment on TK-10, 41.9 µM (inactive); in the experiment on KM-20L2 it was 22.6 µM (inactive); in the experiment with HCC 2998, 33.7 µM (inactive); in the experiment on SK-MEL-2, 15.9 µM (inactive); in the experiment with M19-MEL it was 5.36 µM (inactive).
Take `COc1nc2[nH]ccc2c(=O)[nH]1`: the GI50 was 0.41 µM (active) in the experiment on NCI-H226; > 100 µM (inactive) in the experiment with CCRF-CEM; > 100 µM (inactive) with U-251; > 100 µM (inactive) in the experiment with DMS-114; > 100 µM (inactive) in the experiment with DLD-1; > 100 µM (inactive) in the experiment on M14. For the same compound, the GI50 is > 100 µM (inactive) in the experiment with LOX IMVI; 42.7 µM (inactive) in the experiment on HOP-18; > 100 µM (inactive) with TK-10; > 100 µM (inactive) in the experiment on KM-20L2; > 100 µM (inactive) in the experiment on HCC 2998; > 100 µM (inactive) in the experiment on SK-MEL-2.
As to `CCOC(=O)Nc1ccc(S(=O)(=O)NCCCl)cc1.CCOC(=O)Nc1ccc(S(=O)(=O)NCCCl)cc1.O=C(O)c1ccc(/N=N/Cl)cc1O`, the GI50 with NCI-H226, in the experiment on CCRF-CEM, with U-251, in the experiment on DMS-114, in the experiment with DLD-1 and in the experiment with M14 was > 100 µM (inactive) throughout. For the same compound, the GI50 in the experiment on HOP-18, in the experiment with TK-10, in the experiment on KM-20L2, in the experiment on HCC 2998, in the experiment on SK-MEL-2 and in the experiment on M19-MEL was > 100 µM (inactive) in each case.
`CCN(CC)CCCC(C)Nc1cc(-c2ccccc2)nc2cc(OC)ccc12` (configuration not stated): the GI50 is 1.3 µM (inactive) with CCRF-CEM; 4.22 µM (inactive) in the experiment with U-251; 6.68 µM (inactive) in the experiment with DMS-114; 1.84 µM (inactive) with M14; 2.25 µM (inactive) in the experiment on KM-20L2; 1.15 µM (inactive) in the experiment on HCC 2998. The figures for the GI50 in the experiment with SK-MEL-2 and in the experiment with M19-MEL were 12.6 µM (inactive) and 10.1 µM (inactive), respectively.
Consider `N#Cc1c(-c2ccccc2)cn(C(=O)c2ccccc2)c1N`, for which the GI50 in the experiment on NCI-H226, in the experiment on CCRF-CEM, in the experiment on U-251, in the experiment with PC-3, in the experiment with 786-0 and in the experiment on M14 was > 100 µM (inactive) each time. The GI50 with Hs-578T, in the experiment with DU-145, with NCI/ADR-RES, in the experiment with LOX IMVI, with TK-10 and with MCF7 was > 100 µM (inactive) each time. Also, the GI50 was > 100 µM (inactive) in the experiment with MDA-MB-231, < 0.01 µM (active) in the experiment on HCC 2998 and > 100 µM (inactive) with SK-MEL-2.
Take `OCC1OC(n2ccc3cnccc32)CC1O` (configuration not stated): the GI50 in the experiment with NCI-H226, with CCRF-CEM, in the experiment with U-251, in the experiment with 786-0, in the experiment with DMS-114 and in the experiment on DLD-1 was > 100 µM (inactive) in each case. For the same compound, the GI50 in the experiment on M14, in the experiment on LOX IMVI, in the experiment with HOP-18, in the experiment on TK-10, with HCC 2998 and in the experiment with SK-MEL-2 was > 100 µM (inactive) in each case. Also, the GI50 with M19-MEL is > 100 µM (inactive).
`CCC(C)(C)n1c(C)nc2c1C(=O)c1ccccc1C2=O`: the GI50 in the experiment with NCI-H226 was 40.6 µM (inactive); with CCRF-CEM, 29.7 µM (inactive); in the experiment with U-251, 28.8 µM (inactive); in the experiment with 786-0, 39.5 µM (inactive); in the experiment on DLD-1 it was 15.6 µM (inactive); in the experiment with M14, 42.5 µM (inactive). Also, the GI50 in the experiment on LOX IMVI is 19.4 µM (inactive); in the experiment with TK-10 it was 31.8 µM (inactive); with KM-20L2, 38.6 µM (inactive); in the experiment with HCC 2998 it was 45.8 µM (inactive); with SK-MEL-2, 18.7 µM (inactive); in the experiment on M19-MEL it was 15.7 µM (inactive).

These data come from ChEMBL document CHEMBL1201862, “PubChem BioAssay data set” (2004).
